According to PubChem BioAssay (NCI):
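Tested at 5 concentrations; 48 h exposure; 96-well plates; endpoints linearly interpolated, else capped at highest concentration. GI50 is the concentration that inhibits growth by half. TGI: total growth inhibition.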

What was measured:
Assay in all cases: NCI anticancer screen, dose series, 48 h
OVCAR-3 ovarian = tested on: OVCAR-3 ovarian
NCI-H522 lung = tested on: NCI-H522 lung
OVCAR-4 ovarian = tested on: OVCAR-4 ovarian
M14 melanoma = tested on: M14 melanoma
CCRF-CEM leukemia = tested on: CCRF-CEM leukemia
UACC-257 melanoma = tested on: UACC-257 melanoma
COLO 205 colon = tested on: COLO 205 colon
NCI-H226 lung = tested on: NCI-H226 lung
A549 NSCLC = tested on: A549 NSCLC
HOP-92 NSCLC = tested on: HOP-92 NSCLC
SF-539 CNS = tested on: SF-539 CNS
MALME-3M melanoma = tested on: MALME-3M melanoma
HT29 colon = tested on: HT29 colon
KM12 colon = tested on: KM12 colon
U251 CNS = tested on: U251 CNS
MOLT-4 leukemia = tested on: MOLT-4 leukemia
HOP-62 NSCLC = tested on: HOP-62 NSCLC
K-562 leukemia = tested on: K-562 leukemia
HCT-15 colon = tested on: HCT-15 colon
OVCAR-8 ovarian = tested on: OVCAR-8 ovarian
RPMI-8226 leukemia = tested on: RPMI-8226 leukemia
MDA-MB-468 breast = tested on: MDA-MB-468 breast
HCT-116 colon = tested on: HCT-116 colon
A498 renal = tested on: A498 renal
SF-295 CNS = tested on: SF-295 CNS
786-0 renal = tested on: 786-0 renal
PC-3 prostate = tested on: PC-3 prostate
NCI-H460 lung = tested on: NCI-H460 lung
MCF7 breast = tested on: MCF7 breast
SK-OV-3 ovarian = tested on: SK-OV-3 ovarian
TK-10 renal = tested on: TK-10 renal
MDA-MB-435 = tested on: MDA-MB-435
UO-31 renal = tested on: UO-31 renal
RXF 393 renal = tested on: RXF 393 renal
SF-268 CNS = tested on: SF-268 CNS
DU-145 prostate = tested on: DU-145 prostate
SR leukemia = tested on: SR leukemia
IGROV1 ovarian = tested on: IGROV1 ovarian
T-47D breast = tested on: T-47D breast
CAKI-1 renal = tested on: CAKI-1 renal
HCC-2998 colon = tested on: HCC-2998 colon
SW-620 colon = tested on: SW-620 colon
LOX IMVI melanoma = tested on: LOX IMVI melanoma
NCI-H23 lung = tested on: NCI-H23 lung
SK-MEL-28 melanoma = tested on: SK-MEL-28 melanoma
HS 578T breast = tested on: HS 578T breast
HL-60(TB) leukemia = tested on: HL-60(TB) leukemia
SK-MEL-5 melanoma = tested on: SK-MEL-5 melanoma
BT-549 breast = tested on: BT-549 breast
UACC-62 melanoma = tested on: UACC-62 melanoma
SK-MEL-2 melanoma = tested on: SK-MEL-2 melanoma
EKVX NSCLC = tested on: EKVX NSCLC
OVCAR-5 ovarian = tested on: OVCAR-5 ovarian
NCI/ADR-RES ovarian = tested on: NCI/ADR-RES ovarian
SNB-19 CNS = tested on: SNB-19 CNS
SN12C renal = tested on: SN12C renal
ACHN renal = tested on: ACHN renal
MDA-MB-231 breast = tested on: MDA-MB-231 breast

## COc1ccc2c3nc4cc(C)c(C)cc4nc3n(CCN(C)C)c2c1
OVCAR-3 ovarian
  GI50: 2.24 µM
  TGI: 5.23 µM
NCI-H522 lung
  GI50: 0.665 µM
  TGI: 7.87 µM
OVCAR-4 ovarian
  GI50: 2.82 µM
  TGI: 16.2 µM
M14 melanoma
  GI50: 1.32 µM
  TGI: 2.95 µM
CCRF-CEM leukemia
  GI50: 3.47 µM
  TGI: 13.5 µM
UACC-257 melanoma
  GI50: 3.97 µM
  TGI: 15.1 µM
COLO 205 colon
  GI50: 5.93 µM
  TGI: 20.8 µM
NCI-H226 lung
  GI50: 1.58 µM
  TGI: 3.81 µM
A549 NSCLC
  GI50: 1.34 µM
  TGI: 3.34 µM
HOP-92 NSCLC
  GI50: 0.452 µM
  TGI: 6.02 µM
SF-539 CNS
  GI50: 1.49 µM
  TGI: 2.98 µM
MALME-3M melanoma
  GI50: 1.45 µM
  TGI: 3.28 µM
HT29 colon
  GI50: 3.02 µM
  TGI: 12.6 µM
KM12 colon
  GI50: 2.31 µM
  TGI: 11.4 µM
U251 CNS
  GI50: 1.39 µM
  TGI: 3.89 µM
MOLT-4 leukemia
  GI50: 2.2 µM
  TGI: 7.29 µM
HOP-62 NSCLC
  GI50: 2.53 µM
  TGI: 13 µM
K-562 leukemia
  GI50: 1.44 µM
  TGI: 4.89 µM
HCT-15 colon
  GI50: 1.31 µM
  TGI: 3.54 µM
OVCAR-8 ovarian
  GI50: 1.43 µM
  TGI: 3.47 µM
RPMI-8226 leukemia
  GI50: 1.81 µM
  TGI: 4.85 µM
MDA-MB-468 breast
  GI50: 1.17 µM
  TGI: 3.18 µM
HCT-116 colon
  GI50: 1.27 µM
  TGI: 2.74 µM
A498 renal
  GI50: 11 µM
  TGI: 25.6 µM
SF-295 CNS
  GI50: 1.65 µM
  TGI: 5.55 µM
786-0 renal
  GI50: 2.73 µM
  TGI: 10.5 µM
PC-3 prostate
  GI50: 1.58 µM
  TGI: 12.9 µM
NCI-H460 lung
  GI50: 1.21 µM
  TGI: 3.2 µM
MCF7 breast
  GI50: 1.02 µM
  TGI: 2.95 µM
SK-OV-3 ovarian
  GI50: 3.58 µM
  TGI: 16.2 µM
TK-10 renal
  GI50: 6.87 µM
  TGI: 19 µM
MDA-MB-435
  GI50: 2.5 µM
  TGI: 11 µM
UO-31 renal
  GI50: 0.542 µM
  TGI: 7.76 µM
RXF 393 renal
  GI50: 2.38 µM
  TGI: 9.71 µM
SF-268 CNS
  GI50: 3.41 µM
  TGI: 16.2 µM
DU-145 prostate
  GI50: 2.74 µM
  TGI: 12 µM
SR leukemia
  GI50: 1.32 µM
  TGI: 5.33 µM
IGROV1 ovarian
  GI50: 1.46 µM
  TGI: 13.3 µM
T-47D breast
  GI50: 1.78 µM
  TGI: 13.6 µM
CAKI-1 renal
  GI50: 0.981 µM
  TGI: 6.65 µM
HCC-2998 colon
  GI50: 1.31 µM
  TGI: 3.44 µM
SW-620 colon
  GI50: 1.27 µM
  TGI: 8.47 µM
LOX IMVI melanoma
  GI50: 1.09 µM
  TGI: 2.28 µM
NCI-H23 lung
  GI50: 2.51 µM
  TGI: 11.5 µM
SK-MEL-28 melanoma
  GI50: 3.23 µM
  TGI: 11.9 µM
HS 578T breast
  GI50: 7.19 µM
  TGI: 32.5 µM
HL-60(TB) leukemia
  GI50: 1.18 µM
  TGI: 2.95 µM
SK-MEL-5 melanoma
  GI50: 1.5 µM
  TGI: 2.98 µM
BT-549 breast
  GI50: 2.94 µM
  TGI: 16.4 µM
UACC-62 melanoma
  GI50: 1.61 µM
  TGI: 5.2 µM
SK-MEL-2 melanoma
  GI50: 3.88 µM
  TGI: 15.8 µM
EKVX NSCLC
  GI50: 3.34 µM
  TGI: 15.5 µM
OVCAR-5 ovarian
  GI50: 2.96 µM
  TGI: 12.6 µM
NCI/ADR-RES ovarian
  GI50: 2.28 µM
  TGI: 12 µM
SNB-19 CNS
  GI50: 3.42 µM
  TGI: 16.3 µM
SN12C renal
  GI50: 1.54 µM
  TGI: 5.96 µM
ACHN renal
  GI50: 1.38 µM
  TGI: 4.19 µM
MDA-MB-231 breast
  GI50: 1.79 µM
  TGI: 9.32 µM

## O=C(Nc1ccc(I)cc1)Nc1nc2ccc([N+](=O)[O-])cc2s1
OVCAR-3 ovarian
  GI50: 3.48 µM
  TGI: 12.6 µM
NCI-H522 lung
  GI50: 2.29 µM
  TGI: 6.75 µM
OVCAR-4 ovarian
  GI50: 3.69 µM
  TGI: 14.5 µM
M14 melanoma
  GI50: 3.62 µM
  TGI: 13.2 µM
CCRF-CEM leukemia
  GI50: 3.4 µM
  TGI: 10.8 µM
UACC-257 melanoma
  GI50: 2.83 µM
  TGI: 8.24 µM
COLO 205 colon
  GI50: 2.64 µM
  TGI: 6.52 µM
NCI-H226 lung
  GI50: 3.45 µM
  TGI: 13 µM
A549 NSCLC
  GI50: 3.54 µM
  TGI: 13.5 µM
HOP-92 NSCLC
  GI50: 2.03 µM
  TGI: 6.28 µM
SF-539 CNS
  GI50: 3.01 µM
  TGI: 9.39 µM
MALME-3M melanoma
  GI50: 2.41 µM
  TGI: 6.89 µM
HT29 colon
  GI50: 3.32 µM
  TGI: 13.4 µM
KM12 colon
  GI50: 3.36 µM
  TGI: 11.6 µM
U251 CNS
  GI50: 3.23 µM
  TGI: 10.7 µM
MOLT-4 leukemia
  GI50: 2.57 µM
  TGI: 7.12 µM
HOP-62 NSCLC
  GI50: 3.44 µM
  TGI: 12.5 µM
K-562 leukemia
  GI50: 3.23 µM
  TGI: 10.9 µM
HCT-15 colon
  GI50: 3.2 µM
  TGI: 11.2 µM
OVCAR-8 ovarian
  GI50: 3.48 µM
  TGI: 11.8 µM
RPMI-8226 leukemia
  GI50: 2.07 µM
  TGI: 5.23 µM
MDA-MB-468 breast
  GI50: 2.83 µM
  TGI: 7.4 µM
HCT-116 colon
  GI50: 2.66 µM
  TGI: 11 µM
A498 renal
  GI50: 2.83 µM
  TGI: 9.14 µM
SF-295 CNS
  GI50: 2.93 µM
  TGI: 10.6 µM
786-0 renal
  GI50: 3.5 µM
  TGI: 13.4 µM
PC-3 prostate
  GI50: 3.16 µM
  TGI: 11.4 µM
NCI-H460 lung
  GI50: 3.21 µM
  TGI: 10.4 µM
MCF7 breast
  GI50: 2.59 µM
  TGI: 7.79 µM
SK-OV-3 ovarian
  GI50: 2.93 µM
  TGI: 9.16 µM
TK-10 renal
  GI50: 3.67 µM
  TGI: 11.7 µM
MDA-MB-435
  GI50: 3.47 µM
  TGI: 12.5 µM
RXF 393 renal
  GI50: 3.53 µM
  TGI: 12.9 µM
SF-268 CNS
  GI50: 3.63 µM
  TGI: 14.6 µM
DU-145 prostate
  GI50: 3.99 µM
  TGI: 14 µM
SR leukemia
  GI50: 2.24 µM
  TGI: 5.84 µM
IGROV1 ovarian
  GI50: 3.67 µM
  TGI: 14 µM
T-47D breast
  GI50: 2.8 µM
  TGI: 8.71 µM
CAKI-1 renal
  GI50: 3.32 µM
  TGI: 12.1 µM
HCC-2998 colon
  GI50: 3.59 µM
  TGI: 12.3 µM
SW-620 colon
  GI50: 3.56 µM
  TGI: 13.1 µM
LOX IMVI melanoma
  GI50: 3.49 µM
  TGI: 11.7 µM
NCI-H23 lung
  GI50: 2.23 µM
  TGI: 5.85 µM
SK-MEL-28 melanoma
  GI50: 3.19 µM
  TGI: 10.7 µM
HS 578T breast
  GI50: 3.01 µM
  TGI: 9.9 µM
HL-60(TB) leukemia
  GI50: 2.41 µM
  TGI: 6.05 µM
SK-MEL-5 melanoma
  GI50: 1.93 µM
  TGI: 3.9 µM
BT-549 breast
  GI50: 2.31 µM
  TGI: 7.29 µM
UACC-62 melanoma
  GI50: 2.99 µM
  TGI: 10.3 µM
EKVX NSCLC
  GI50: 3.08 µM
  TGI: 10.9 µM
OVCAR-5 ovarian
  GI50: 4.11 µM
  TGI: 15.9 µM
NCI/ADR-RES ovarian
  GI50: 2.92 µM
  TGI: 9.27 µM
SNB-19 CNS
  GI50: 3.44 µM
  TGI: 12.9 µM
SN12C renal
  GI50: 2.86 µM
  TGI: 9.42 µM
ACHN renal
  GI50: 3.25 µM
  TGI: 10.4 µM
